In PubChem BioAssay AID2060497 (Molecular Pharmacology Branch, DTP, NCI, 2025):

System: 317291-083-R-J1-PDC complex spheroids, viability
Assay: Anticancer human tumor 317291-083-R-J1-PDC patient-derived soft tissue sarcoma cell line growth inhibition [GQUAD]
Conditions: for IC50: curve of first compound; for viability, T/C: stronger effect = lower value
Method in brief: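 Viability of tumor cells grown as complex spheroids with endothelial and stromal cells, exposed to drug combinations. Top concentration at or near clinical Cmax (else 10 microM), diluted in half-log increments.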

[1] = second compound 0.0316 µM, first compound 0.0316 µM
[2] = second compound 0.0316 µM, first compound 0.1 µM
[3] = second compound 0.0316 µM, first compound 0.316 µM
[4] = second compound 0.0316 µM, first compound 1 µM
[5] = second compound 0.0316 µM, first compound 3.16 µM
[6] = second compound 0.0316 µM, first compound 10 µM
[7] = second compound 0.1 µM, first compound 0.0316 µM
[8] = second compound 0.1 µM, first compound 0.1 µM
[9] = second compound 0.1 µM, first compound 0.316 µM
[10] = second compound 0.1 µM, first compound 1 µM
[11] = second compound 0.1 µM, first compound 3.16 µM
[12] = second compound 0.1 µM, first compound 10 µM
[13] = second compound 0.316 µM, first compound 0.0316 µM
[14] = second compound 0.316 µM, first compound 0.1 µM
[15] = second compound 0.316 µM, first compound 0.316 µM
[16] = second compound 0.316 µM, first compound 1 µM
[17] = second compound 0.316 µM, first compound 3.16 µM
[18] = second compound 0.316 µM, first compound 10 µM
[19] = second compound 1 µM, first compound 0.0316 µM
[20] = second compound 1 µM, first compound 0.1 µM
[21] = second compound 1 µM, first compound 0.316 µM
[22] = second compound 1 µM, first compound 1 µM
[23] = second compound 1 µM, first compound 3.16 µM
[24] = second compound 1 µM, first compound 10 µM
[25] = second compound 3.16 µM, first compound 0.0316 µM
[26] = second compound 3.16 µM, first compound 0.1 µM
[27] = second compound 3.16 µM, first compound 0.316 µM
[28] = second compound 3.16 µM, first compound 1 µM
[29] = second compound 3.16 µM, first compound 3.16 µM
[30] = second compound 3.16 µM, first compound 10 µM
[31] = second compound 10 µM, first compound 0.0316 µM
[32] = second compound 10 µM, first compound 0.1 µM
[33] = second compound 10 µM, first compound 0.316 µM
[34] = second compound 10 µM, first compound 1 µM
[35] = second compound 10 µM, first compound 3.16 µM
[36] = second compound 10 µM, first compound 10 µM
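Note: spheroids exposed to compounds for one week before readout.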
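Throughout, for viability, T/C: percent viability relative to DMSO vehicle wells taken as 100%.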

O=C(NO)c1cnc(N2CCN(S(=O)(=O)c3ccc4ccccc4c3)CC2)nc1 + CN(C)c1ccc(Nc2c3ccc(NC(=O)CCN4CCCC4)cc3nc3cc(NC(=O)CCN4CCCC4)ccc23)cc1
IC50 (second compound 0.0316 µM): 120 nM | IC50 (second compound 0.1 µM): 134 nM | IC50 (second compound 0.316 µM): 78.9 nM | IC50 (second compound 1 µM): < 31.6 nM | IC50 (second compound 3.16 µM): < 31.6 nM | IC50 (second compound 10 µM): < 31.6 nM | viability, T/C [1]: 102% | viability, T/C [2]: 58.3% | viability, T/C [3]: 5.38% | viability, T/C [4]: 0.53% | viability, T/C [5]: 0.02% | viability, T/C [6]: 0.56% | viability, T/C [7]: 97.1% | viability, T/C [8]: 64.3% | viability, T/C [9]: 7.56% | viability, T/C [10]: 0.08% | viability, T/C [11]: 0.71% | viability, T/C [12]: 0.06% | viability, T/C [13]: 90.5% | viability, T/C [14]: 39.5% | viability, T/C [15]: 5.83% | viability, T/C [16]: 0.06% | viability, T/C [17]: 0.09% | viability, T/C [18]: 0.1% | viability, T/C [19]: 38.2% | viability, T/C [20]: 18.5% | viability, T/C [21]: 1.87% | viability, T/C [22]: 0.1% | viability, T/C [23]: 0.06% | viability, T/C [24]: 0.08% | viability, T/C [25]: 10.9% | viability, T/C [26]: 1.33% | viability, T/C [27]: 0.19% | viability, T/C [28]: 0.07% | viability, T/C [29]: 0.12% | viability, T/C [30]: 0.09% | viability, T/C [31]: 1.1% | viability, T/C [32]: 0.76% | viability, T/C [33]: 0.24% | viability, T/C [34]: 0.36% | viability, T/C [35]: 0.28% | viability, T/C [36]: 0.21%

C#Cc1c(F)ccc2cc(O)cc(-c3ncc4c(N5CC6CCC(C5)N6)nc(OCC56CCCN5CC(F)C6)nc4c3F)c12 (stereo not drawn) + Cc1cnc(CNC(=O)c2c(=O)c3ccc(N4CCCN(C)CC4)nc3n3c2sc2ccccc23)cn1
IC50 (second compound 0.0316 µM): > 10000 nM | IC50 (second compound 0.1 µM): > 10000 nM | IC50 (second compound 0.316 µM): < 31.6 nM | IC50 (second compound 1 µM): < 31.6 nM | IC50 (second compound 3.16 µM): < 31.6 nM | IC50 (second compound 10 µM): < 31.6 nM | viability, T/C [1]: 107% | viability, T/C [2]: 104% | viability, T/C [3]: 99.9% | viability, T/C [4]: 105% | viability, T/C [5]: 90.6% | viability, T/C [6]: 66.5% | viability, T/C [7]: 89% | viability, T/C [8]: 74.4% | viability, T/C [9]: 57.7% | viability, T/C [10]: 87.2% | viability, T/C [11]: 76% | viability, T/C [12]: 80.9% | viability, T/C [13]: 45.3% | viability, T/C [14]: 52.1% | viability, T/C [15]: 53.3% | viability, T/C [16]: 36.7% | viability, T/C [17]: 51.7% | viability, T/C [18]: 51.8% | viability, T/C [19]: 31.4% | viability, T/C [20]: 36.5% | viability, T/C [21]: 38.9% | viability, T/C [22]: 24.8% | viability, T/C [23]: 27.4% | viability, T/C [24]: 21% | viability, T/C [25]: 14.7% | viability, T/C [26]: 18.3% | viability, T/C [27]: 31.5% | viability, T/C [28]: 14.1% | viability, T/C [29]: 22.6% | viability, T/C [30]: 19.1% | viability, T/C [31]: 38.2% | viability, T/C [32]: 22.9% | viability, T/C [33]: 10.5% | viability, T/C [34]: 13.7% | viability, T/C [35]: 11.1% | viability, T/C [36]: 3.98%

O=c1[nH]cc(F)c(=O)[nH]1 + Cc1[nH]c2ccc(F)cc2c1-c1nc2c3cccnc3c3ncccc3c2[nH]1
IC50 (second compound 0.0316 µM): 5340 nM | IC50 (second compound 0.1 µM): 1680 nM | IC50 (second compound 0.316 µM): 1770 nM | IC50 (second compound 1 µM): 1600 nM | IC50 (second compound 3.16 µM): 2710 nM | IC50 (second compound 10 µM): 823 nM | viability, T/C [1]: 118% | viability, T/C [2]: 117% | viability, T/C [3]: 116% | viability, T/C [4]: 69.5% | viability, T/C [5]: 73.3% | viability, T/C [6]: 31.8% | viability, T/C [7]: 110% | viability, T/C [8]: 106% | viability, T/C [9]: 96.7% | viability, T/C [10]: 62.2% | viability, T/C [11]: 34.7% | viability, T/C [12]: 30.6% | viability, T/C [13]: 108% | viability, T/C [14]: 104% | viability, T/C [15]: 89.1% | viability, T/C [16]: 63.6% | viability, T/C [17]: 35.4% | viability, T/C [18]: 31.8% | viability, T/C [19]: 93.9% | viability, T/C [20]: 102% | viability, T/C [21]: 102% | viability, T/C [22]: 60.9% | viability, T/C [23]: 36.5% | viability, T/C [24]: 31.9% | viability, T/C [25]: 99.3% | viability, T/C [26]: 86.6% | viability, T/C [27]: 79.2% | viability, T/C [28]: 45.2% | viability, T/C [29]: 64.3% | viability, T/C [30]: 30.2% | viability, T/C [31]: 73.6% | viability, T/C [32]: 75.9% | viability, T/C [33]: 81.5% | viability, T/C [34]: 44.5% | viability, T/C [35]: 33% | viability, T/C [36]: 27.4%

CC(C)n1c(=O)n(C)c2cnc3cc(F)c(-c4ccc(OCCCN5CCCCC5)nc4)cc3c21 + Cc1cnc(CNC(=O)c2c(=O)c3ccc(N4CCCN(C)CC4)nc3n3c2sc2ccccc23)cn1
IC50 (second compound 0.0316 µM): 858 nM | IC50 (second compound 0.1 µM): < 31.6 nM | IC50 (second compound 0.316 µM): < 31.6 nM | IC50 (second compound 1 µM): < 31.6 nM | IC50 (second compound 3.16 µM): < 31.6 nM | IC50 (second compound 10 µM): < 31.6 nM | viability, T/C [1]: 57.3% | viability, T/C [2]: 51.3% | viability, T/C [3]: 45.1% | viability, T/C [4]: 29.2% | viability, T/C [5]: 73.3% | viability, T/C [6]: 44.5% | viability, T/C [7]: 37.1% | viability, T/C [8]: 37% | viability, T/C [9]: 24.6% | viability, T/C [10]: 25.9% | viability, T/C [11]: 23.9% | viability, T/C [12]: 25.3% | viability, T/C [13]: 21.2% | viability, T/C [14]: 25.9% | viability, T/C [15]: 25.4% | viability, T/C [16]: 22.1% | viability, T/C [17]: 33% | viability, T/C [18]: 17.5% | viability, T/C [19]: 18.2% | viability, T/C [20]: 22.1% | viability, T/C [21]: 23.5% | viability, T/C [22]: 19.4% | viability, T/C [23]: 21.9% | viability, T/C [24]: 21.5% | viability, T/C [25]: 11.4% | viability, T/C [26]: 13.9% | viability, T/C [27]: 29.8% | viability, T/C [28]: 10.7% | viability, T/C [29]: 13.1% | viability, T/C [30]: 11.4% | viability, T/C [31]: 26.2% | viability, T/C [32]: 16.6% | viability, T/C [33]: 10.7% | viability, T/C [34]: 21.9% | viability, T/C [35]: 25.5% | viability, T/C [36]: 23.4%
